Here are results for eight molecules from paper PMC4266452, “Prediction of Thorough QT study results using action potential simulations based on ion channel screens” (Journal of Pharmacological and Toxicological Methods, 2014).

For data set [1], the target named is T1, hERG (Homo sapiens, UniProt Q12809).
The next data set addresses T2, Kv4.3/KChIP2.2 (Homo sapiens, UniProt Q9UK17).
T2 sequence (Q9UK17 1-655): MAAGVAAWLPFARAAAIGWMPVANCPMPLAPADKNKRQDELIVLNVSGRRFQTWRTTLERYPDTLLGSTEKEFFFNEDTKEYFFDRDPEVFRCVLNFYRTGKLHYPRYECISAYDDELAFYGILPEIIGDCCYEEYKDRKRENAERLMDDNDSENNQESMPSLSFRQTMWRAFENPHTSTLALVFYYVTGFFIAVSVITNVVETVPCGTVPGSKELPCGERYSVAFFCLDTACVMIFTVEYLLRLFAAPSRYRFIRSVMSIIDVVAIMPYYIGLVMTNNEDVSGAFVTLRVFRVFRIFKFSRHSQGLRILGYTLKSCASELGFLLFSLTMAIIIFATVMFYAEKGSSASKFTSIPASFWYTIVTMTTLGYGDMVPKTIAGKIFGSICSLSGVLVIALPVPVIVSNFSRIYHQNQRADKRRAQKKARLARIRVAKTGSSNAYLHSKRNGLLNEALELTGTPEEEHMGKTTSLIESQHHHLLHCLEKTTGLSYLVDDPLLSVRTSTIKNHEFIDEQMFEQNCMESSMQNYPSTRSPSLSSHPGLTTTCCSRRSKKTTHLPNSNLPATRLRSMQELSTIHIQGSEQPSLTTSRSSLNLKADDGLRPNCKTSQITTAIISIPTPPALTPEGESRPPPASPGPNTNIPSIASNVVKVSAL
T2 sequence (Q9NS61 1-270 partner): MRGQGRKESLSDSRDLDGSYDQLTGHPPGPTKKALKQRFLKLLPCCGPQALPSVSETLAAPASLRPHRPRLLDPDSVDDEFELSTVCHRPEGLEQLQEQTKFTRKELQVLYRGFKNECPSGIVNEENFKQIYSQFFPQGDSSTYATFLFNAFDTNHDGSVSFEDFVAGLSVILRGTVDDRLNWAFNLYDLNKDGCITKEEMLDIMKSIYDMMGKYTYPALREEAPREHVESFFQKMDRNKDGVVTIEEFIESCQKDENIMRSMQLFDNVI
The experiment in a line: IonWorks Quattro Kv4.3/KChIP2.2 screen (AstraZeneca, Q). Format: cell-based. In general terms: The patch-clamp technique gives a direct electrical read-out from membranes.

Data set [2] has as its target T1, hERG. The experiment in a line: IonWorks Quattro hERG screen (AstraZeneca, Q).
The target in data set [3] is T1, hERG. The following applies: cited from earlier work.
The conditions of data set [4]: ref Gintant (2011), cited from earlier work.
A short description of data set [5]: Plasma concentration (Cmax) during the TQT study, total and calculated free. The format is in vivo, human. The following applies: for Cmax TOTAL: calculated from ng/mL and molecular weight.
Data set [6] concerns QT interval on the body surface ECG. The following applies: cited from earlier work.
The conditions of data set [7]: ref Gintant (2011); cited from earlier work.
The target in data set [8] is T3, CaV1.2 (Homo sapiens, UniProt Q13936). The experiment in a line: IonWorks Quattro CaV1.2 screen (AstraZeneca, Q).
Data set [9] has as its target T3, CaV1.2. Description: IonWorks Barracuda CaV1.2 screen (GSK, B).
For data set [10], the target named is T4, NaV1.5 (Homo sapiens, UniProt Q14524). The experiment in a line: IonWorks Quattro NaV1.5 screen (AstraZeneca, Q).
Data set [11] addresses T4, NaV1.5. The experiment in a line: Second IonWorks Quattro NaV1.5 screen (GSK, Q2).
The target of data set [12] is T5, KCNQ1/MinK (Homo sapiens, UniProt P51787).
Data set [13] has as its target T1, hERG. Description: cell-based.
Data set [14] addresses T5, KCNQ1/MinK. The experiment in a line: IonWorks Quattro KCNQ1/MinK screen (AstraZeneca, Q). The following applies: −log10 of IC50 in Molar, Hill n = 1, 0.0 = pIC50 ≤ 0 fitted.
In data set [15] the target is T1, hERG. Description: in vitro.
[16] abbreviates: IonWorks Quattro, −log10 of IC50 in Molar, Hill n = 1, 0.0 = pIC50 ≤ 0 fitted.
The mark [17] stands for this setting: Cmax high, calculated with PPB and molecular weight.
Where [18] appears, read: Cmax low, calculated with PPB and molecular weight.

Where two headings read alike, the source gives them in different places. Where only a bound is given, the exact number is not on record here.

`CN(C)CC(c1ccc(O)cc1)C1(O)CCCCC1` (stereo not shown) [Desvenlafaxine]: at hERG [1], the “hERG pIC50 (B)” value is on record as no more than 0.0. In addition, the “Kv4.3 pIC50 (Q)” value on Kv4.3/KChIP2.2 (setting [16]) was 2.3. Besides, at hERG [2], the IC50 – broadly, the concentration that inhibits the measured activity by half – is 20000 µM. Moreover, the “hERG pIC50 (M)” value on hERG [3] is on record as 3.6. Also, the “Cmax TOTAL” value in [4] (Cmax high) is reported as 1466.00 ng/mL; in data set [4] (Cmax low), 470.00 ng/mL; in [5] (Cmax low) it was 1784.49 nM. The values for the Free plasma concentration in data set [5] (Cmax high) and in [5] (Cmax low) were 3902 nM and 1251 nM, respectively. Moreover, the “Cmax FREE” value was 1027.67 ng/mL in [5] (Cmax high, calculated with PPB); 3901.84 nM in data set [5] (setting [17]); 329.47 ng/mL in data set [5] (Cmax low, calculated with PPB); 1250.93 nM in data set [5] (setting [18]). Further, the “QT shortening in the TQT study” value in data set [6] (range over the three drugs, ref Gintant (2011)) is 2 to 7 ms. The “relationship between exposure and QTc in words (COMMENTS)” value (“relationship between exposure and QTc” below) in [6] (ref Gintant (2011)) was “Desvenlafaxine; no clear relationship between exposure and QTc”.

As for `CNCC[C@H](Oc1cccc2ccccc12)c1cccs1` [Duloxetine], the “PPB (percent plasma binding)” value in data set [7] is 90%. Besides, the “CaV1.2 pIC50 (Q)” value at CaV1.2 [8] is on record as 4.0. Besides, the “Kv4.3 pIC50 (Q)” value on Kv4.3/KChIP2.2 is recorded as 4.0. The “CaV1.2 pIC50 (B)” value at CaV1.2 [9] is recorded as 4.6. The “NaV1.5 pIC50 (Q)” value at NaV1.5 [10] turned out to be 5.1. For the same molecule, the results for the “Cmax TOTAL” value in [4] (Cmax high) and in data set [5] (Cmax high) were 300 ng/mL and 1008.69 nM, respectively. For the same molecule, the “NaV1.5 pIC50 (Q2)” value on NaV1.5 [11] is 4.8. For the same molecule, the “KCNQ1 pIC50 (Q)” value on KCNQ1/MinK [12] stood at 5.0. Besides, the “Cmax FREE” value is 30 ng/mL in data set [5] (Cmax high, calculated with PPB) and 100.869 nM in data set [5] (setting [17]).

`CC1=NN(c2ccc(C)c(C)c2)C(=O)/C1=N\Nc1cccc(-c2cccc(C(=O)O)c2)c1O` [Eltrombopag]: in data set [7], the “PPB (percent plasma binding)” value is reported as 99.6% PPB. In addition, at Kv4.3/KChIP2.2 (setting [16]), the “Kv4.3 pIC50 (Q)” value amounted to 2.8. The “Cmax TOTAL” value in data set [4] (Cmax high) is reported as 19000.0 ng/mL; in data set [4] (Cmax low), 6400.0 ng/mL. Moreover, the “Cmax FREE” value is 76 ng/mL in data set [5] (Cmax high, calculated with PPB); 171.764 nM in [5] (setting [17]); 25.6 ng/mL in data set [5] (Cmax low, calculated with PPB); 57.8574 nM in [5] (setting [18]). Moreover, the midpoint of inhibition at hERG [13], the IC50, lay at 1580 µM.

As for `COC[C@@H](NC(C)=O)C(=O)NCc1ccccc1` [Lacosamide], the “PPB (percent plasma binding)” value in [7] is reported as 6% PPB. Moreover, the “CaV1.2 pIC50 (Q)” value on CaV1.2 [8] (IonWorks Quattro, −log10 of IC50 in Molar, Hill n = 1, […]) amounted to 4.3. Also, the “KCNQ1 pIC50 (Q)” value at KCNQ1/MinK [12] amounted to 3.6. Besides, the Free plasma concentration in [5] (Cmax high) was 79618.4 nM; in data set [5] (Cmax low), 41311.4 nM. In addition, the “Cmax FREE” value is listed as 19928 ng/mL in data set [5] (Cmax high, calculated with PPB); 79618.4 nM in data set [5] (setting [17]); 10340 ng/mL in data set [5] (Cmax low, calculated with PPB); 41311.4 nM in [5] (setting [18]).

Regarding `CS(=O)(=O)CCNCc1ccc(-c2ccc3ncnc(Nc4ccc(OCc5cccc(F)c5)c(Cl)c4)c3c2)o1` [Lapatinib], the “CaV1.2 pIC50 (Q)” value at CaV1.2 [8] came out at 2.7. For the same molecule, the “CaV1.2 pIC50 (B)” value on CaV1.2 [9] turned out to be 1.8. Besides, on NaV1.5 [10] (setting [16]), the “NaV1.5 pIC50 (Q)” value was 2.5. In addition, the “Cmax TOTAL” value is 3203.000 ng/mL in data set [4] (Cmax high), 1389.000 ng/mL in [4] (Cmax low), 5512.340 nM in [5] (Cmax high) and 2390.459 nM in data set [5] (Cmax low). The Free plasma concentration in [5] (Cmax high) was 55.12 nM; in data set [5] (Cmax low), 23.9 nM. Further, the “Cmax FREE” value in [5] (Cmax high, calculated with PPB) was 32.030 ng/mL; in [5] (setting [17]), 55.123 nM; in data set [5] (Cmax low, calculated with PPB), 13.890 ng/mL; in data set [5] (setting [18]), 23.905 nM. Moreover, the “KCNQ1 pIC50 (Q)” value on KCNQ1/MinK [14] amounted to 3.6.

`OC(CNCC(O)C1CCc2cc(F)ccc2O1)C1CCc2cc(F)ccc2O1` (stereo not shown) [Nebivolol]: in data set [7], the “PPB (percent plasma binding)” value is 98% PPB. Moreover, the “Kv4.3 pIC50 (Q)” value on Kv4.3/KChIP2.2 (setting [16]) is recorded as 4.3. For the same molecule, the “NaV1.5 pIC50 (Q)” value on NaV1.5 [10] was 5.2. The molecule also had an IC50 at 3 min at hERG [2] (human, CHO K1 cells stably transfected with human ERG) of 6.31 µM. In addition, the “Cmax TOTAL” value is reported as 20.760 ng/mL in data set [4] (Cmax high) and 46.979 nM in [5] (Cmax high). Further, in data set [4] (supratherapeutic / highest dose of the TQT study), the “mean Cmax” value is recorded as 20.76 ng/mL. Besides, the “NaV1.5 pIC50 (Q2)” value at NaV1.5 [11] was 5.1. At hERG [15], half-maximal inhibition (IC50) required 6.31 µM. Further, the Free plasma concentration in [5] (Cmax high) is 0.9396 nM. Also, the “Cmax FREE” value in data set [5] (Cmax high, calculated with PPB) is given as 0.415 ng/mL; in data set [5] (setting [17]) it was 0.940 nM. In data set [6] (TQT study, highest dose, ref Gintant (2011)), the “QTc change (QTcF)” value was 0.68 ms. Moreover, in data set [6] (ref Gintant (2011)), the “relationship between exposure and QTc” value is reported as “No relationship between plasma conc.and QTcF”.

`Cc1c(O)cccc1C(=O)N[C@@H](CSc1ccccc1)[C@H](O)CN1C[C@H]2CCCC[C@H]2C[C@H]1C(=O)NC(C)(C)C` [Nelfinavir]: the “Kv4.3 pIC50 (Q)” value at Kv4.3/KChIP2.2 (setting [16]) was found to be 2.3. Besides, the IC50 on hERG [2] is 31600 µM. For the same molecule, at hERG [3], the “hERG pIC50 (M)” value is recorded as 4.9. The “Cmax TOTAL” value in data set [4] (Cmax high) is 10900 ng/mL; in [4] (Cmax low), 8300 ng/mL; in data set [5] (Cmax high), 19197.2 nM; in [5] (Cmax low), 14618.1 nM. Also, the values for the Free plasma concentration in data set [5] (Cmax high) and in data set [5] (Cmax low) were 80.63 nM and 61.4 nM, respectively. Moreover, the “Cmax FREE” value is reported as 45.78 ng/mL in data set [5] (Cmax high, calculated with PPB); 80.6284 nM in data set [5] (setting [17]); 34.86 ng/mL in data set [5] (Cmax low, calculated with PPB); 61.3959 nM in data set [5] (setting [18]). For the same molecule, the “upper 90% confidence limit of QTc change” value in data set [6] (at every time point, ref Damle et al., J Clin Pharm. (49):291-300. 2009) is on record as “a) upper 90% confidence limit below 10 msec at every”. Further, in [6] (ref Gintant (2011)), the “TQT study outcome in words (COMMENTS)” value is recorded as “Damle et al concludes negative TQT study since”. Also, in [6] (ref Gintant (2011)), the “relationship between exposure and QTc” value was “time point and b) PK-PD model slopes were negative”.

With `CCCc1nc(C)c2c(=O)nc(-c3cc(S(=O)(=O)N4CCN(CC)CC4)ccc3OCC)[nH]n12` [Vardenafil], the “PPB (percent plasma binding)” value in [7] is reported as 95% PPB. The “Kv4.3 pIC50 (Q)” value on Kv4.3/KChIP2.2 (setting [16]) is on record as […]. For the same molecule, on hERG [3], the “hERG pIC50 (M)” value was […]. The “Cmax TOTAL” value in data set [4] (Cmax high) is 106.000 ng/mL; in data set [4] (Cmax low), 8.830 ng/mL; in [5] (Cmax high) it was 183.043 nM; in data set [5] (Cmax low) it was 15.248 nM. At hERG [15], […] corresponded to half-maximal inhibition (IC50). The “Cmax FREE” value in data set [5] (Cmax high, calculated with PPB) is given as 5.300 ng/mL; in [5] (setting [17]), 9.152 nM; in data set [5] (Cmax low, calculated with PPB) it was 0.442 ng/mL; in [5] (setting [18]), 0.762 nM.
